Measured values as given in patent US8614168B2, “Use of azoles for increasing the abiotic stress resistance of plants or plant parts” (Monheim, priority 2008, dated 2013).

Assays:
[1] = tested on: BRSNS: oilseed rape (Brassica napus); test: Dry stress test on potted plants, spray application, oilseed rape; format: in vivo; conditions: individual substance
Protocol: (§1) Seeds of monocotyledonous and dicotyledonous crop plants are placed in sandy loam in wood-fiber pots, covered with soil and cultivated in a greenhouse under good growth conditions. The test plants are treated in the early leaf stage (BBCH10-BBCH13, BBCH-Monografie der Biologische Bundesanstalt für Land and Forstwirtschaft, 2nd edition, 2001), i.e. 2-3 weeks after sowing according to the species. To ensure uniform water supply before commencement of stress, the potted plants were supplied with the maximum amount of water immediately beforehand by dam irrigation and transferred in plastic inserts in order to prevent subsequent, excessively rapid drying. The inventive compounds, formulated in the form of wettable powders (WP), are then sprayed onto the green parts of the plants as an aqueous suspension at an equivalent water application rate of 600 l/ha with addition of 0.2% wetting agent (agrotin). Substance application is followed immediately by stress treatment of the plants (cold or dry stress). Dry stress is induced by slow drying under the following conditions: • “day”: 14 hours with illumination at 26° C. • “night”: 10 hours without illumination at 18° C. The cold stress phase is ended after exactly 14 days. The duration of the dry stress phase is guided mainly by the state of the untreated, stressed control plants and thus varies from crop to crop. It is ended (by re-irrigating) as soon as irreversible damage is observed on the untreated, stressed control plants. In the case of dicotyledonous crops, for example oilseed rape and soya, the duration of the dry stress phase is between 4 and 6 days, in the case of monocotyledonous crops, for example wheat, barley or corn, between 6 and 10 days. The end of the stress phase is followed by a 7-day recovery phase, during which the plants are once again kept under good growth conditions in a greenhouse. In order to rule out any influence of the effects observed by any fungicidal action of the test compounds, it is additionally ensured that the tests proceed without fungal infection and without infection pressure. After the recovery phase has ended, the intensities of damage are rated visually compared to untreated, unstressed controls of the same age (in the case of dry stress) or the same growth stage (in the case of cold stress). The intensity of damage is first assessed as a percentage (100%=plants have died, 0%=like control plants). These values are then used to calculate the efficacy of the test compounds (=percentage reduction in the intensity of damage as a result of substance application) by the following formula: [formula] EF: efficacy (%) DVus: damage value of the untreated, stressed control DVts: damage value of the plants treated with test compound The table below lists mean values in each case from three results of the same test.

ZEAMX: corn (Zea mais) = test: Dry stress test on potted plants, spray application, corn; format: in vivo; conditions: individual substance
Protocol: as §1

[2] = tested on: crop plants, for example oilseed rape; test: Stunting: mean plant height after azole application; format: in vivo; conditions: dosage 250 g/ha, comparative 11.7 cm
From the text: In the case of application of the inventive azoles, this stunting occurs to a lower or non-undesirable degree: […]

ABA 8′-hydroxylase = conditions: studies to date (Kitahata et al., 2005; Saito et al., 2006); cited from earlier work
[3] = tested on: HORVS barley (Hordeum vulgare); test: Dry stress test on potted plants, spray application, barley; format: in vivo; conditions: 100 g/ha, individual substance
Protocol: Seeds of monocotyledonous and dicotyledonous crop plants are placed in sandy loam in wood-fiber pots, covered with soil and cultivated in a greenhouse under good growth conditions. The test plants are treated in the early leaf stage (BBCH10-BBCH13, BBCH-Monografie der Biologische Bundesanstalt für Land and Forstwirtschaft, 2nd edition, 2001), i.e. 2-3 weeks after sowing according to the species. To ensure uniform water supply before commencement of stress, the potted plants were supplied with the maximum amount of water immediately beforehand by dam irrigation and transferred in plastic inserts in order to prevent subsequent, excessively rapid drying. The inventive compounds, formulated in the form of wettable powders (WP), are then sprayed onto the green parts of the plants as an aqueous suspension at an equivalent water application rate of 600 l/ha with addition of 0.2% wetting agent (agrotin). Substance application is followed immediately by stress treatment of the plants (cold or dry stress). Dry stress is induced by slow drying under the following conditions: • “day”: 14 hours with illumination at 26° C. • “night”: 10 hours without illumination at 18° C. The cold stress phase is ended after exactly 14 days. […] The intensity of damage is first assessed as a percentage (100%=plants have died, 0%=like control plants). […]

Row | SMILES | efficacy (percentage reduction in the intensity of damage) ([1]; 100 g/ha) | efficacy (percentage reduction in the intensity of damage) ([1]; 250 g/ha) | efficacy (percentage reduction in the intensity of damage) (ZEAMX: corn (Zea mais); 250 g/ha) | Mean plant height (cm) [2] | inhibiting action on abscisic acid catabolism or ABA 8′-hydroxylase (ABA 8′-hydroxylase) | efficacy (percentage reduction in the intensity of damage) (ZEAMX: corn (Zea mais); 100 g/ha) | efficacy (percentage reduction in the intensity of damage) [3]
1 | CC(C)(C)C(O)(CCc1ccc(Cl)cc1)Cn1cncn1 (stereo not shown) [tebuconazole] | 27% | 42% | 30% | 10.2 cm | only slight inhibiting action, if any | – | –
2 | CC(C1CC1)C(O)(Cn1cncn1)c1ccc(Cl)cc1 (stereo not shown) [cyproconazole] | – | 42% | 37% | – | – | 40% | –
3 | OC(Cc1ccccc1Cl)(Cn1nc[nH]c1=S)C1(Cl)CC1 (stereo not shown) [prothioconazole] | 12% | – | – | 10.2 cm | – | 12% | 11%
4 | CC1(C)CCC(Cc2ccc(Cl)cc2)C1(O)Cn1cncn1 (stereo not shown) [metconazole] | 50% | – | – | – | – | – | –
5 | Fc1ccc([C@]2(Cn3cncn3)O[C@H]2c2ccccc2Cl)cc1 (racemic) [epoxiconazole] | 35% | – | – | – | – | 11% | 17%
